How the values were obtained:
Format in all cases: biochemical
RetA = target: T1, RetA (Homo sapiens, UniProt P07949); assay: Ret A HTRF assay; conditions: in-house, mean ± SD
T1 construct: purchased Life Technologies PV3819
Description: CC-509 was prepared at a concentration of 1.5 mM in DMSO followed by 3-fold dilutions in Greiner […] polypropylene plates. A 1:4 dilution of compounds by 8 μL/well transfer from the polypropylene plates to 24 μL/well Assay Buffer (50 mM HEPES pH 7.6, 1 mM DTT, 10 mM MgCl2, 0.01% Triton X-100, 0.01% BSA and 0.1 mM EDTA) in Costar 3710 384 well black plates was then performed. Kinases (13 μL/well of 31 ng/ml RetA (Life Technologies, Grand Island, NY PV3819) in Assay Buffer) or Assay Buffer only (background controls) were added to Costar 3710 384-well black plates for the HTRF assays and compound (2 μL/ well) was added from the 1:4 dilution plate. […] Time resolved fluorescence was read in assay plates on a PerkinElmer EnVision. […] The IC50 value was determined as described in the data fitting section below.
For the TEL-Syk assay, the intensity values for the 700 and 800 channel were exported as text files in ActivityBase (IDBS, Guildford, UK) to derive the ratios that reflect kinase activity. […] For the JAK2 HEL and Ramos NFAT β-lactamase assays, the fluorescence values obtained at 460 nm and 530 nm were exported into ActivityBase to calculate response ratios. […] Evans blue dye extravasation was expressed as mean ± SEM and % inhibition for the test article groups was normalized to the cromolyn positive control. […] Data is expressed as mean ± SEM of each group with n = 6–12. […]

Syk [1] = target: T2, Syk (Homo sapiens, UniProt P43405); assay: Syk HTRF assay; parameters: purchased Carna Biosciences 08-176; conditions: in-house, mean ± SD, n = 8
Description: CC-509 was prepared at a concentration of 1.5 mM in dimethyl sulfoxide (DMSO) followed by 3-fold dilutions in Greiner 384 well polypropylene plates. […] Time resolved fluorescence was read in assay plates on a PerkinElmer EnVision. […] The IC50 value was determined as described in the data fitting section below.
For the TEL-Syk assay, the intensity values for the 700 and 800 channel were exported as text files in ActivityBase (IDBS, Guildford, UK) to derive the ratios that reflect kinase activity. […] For the JAK2 HEL and Ramos NFAT β-lactamase assays, the fluorescence values obtained at 460 nm and 530 nm were exported into ActivityBase to calculate response ratios. […] Evans blue dye extravasation was expressed as mean ± SEM and % inhibition for the test article groups was normalized to the cromolyn positive control. […] The mean data from each group was plotted and either the AUC(day 11–18) or % inhibition on day 18 was calculated. Data is expressed as mean ± SEM of each group with n = 6–12. […]

Syk [2] = target: T2, Syk; assay: Syk kinase mode of inhibition studies (Caliper LC3000)
Description: Syk kinase mode of inhibition studies, including parameters described in Fig 1, were conducted on the LC3000 platform by Caliper Life Sciences (Hopkinton, MA) according to standard protocols developed by the supplier. […] Non-kinase enzyme assays and GPCR, ion channel, and transporter binding assays were run by CEREP (France). Non-GLP manual patch clamp hERG assays were run by ChanTest (Cleveland, Ohio). Vivid® Assay kits (Life Technologies) were used to measure the cytochrome P450 inhibition of the compound against CYP3A, CYP2C9, CYP2C19, CYP2D6, and CYP1A2, as described.

T1 sequence (P07949 29-1114): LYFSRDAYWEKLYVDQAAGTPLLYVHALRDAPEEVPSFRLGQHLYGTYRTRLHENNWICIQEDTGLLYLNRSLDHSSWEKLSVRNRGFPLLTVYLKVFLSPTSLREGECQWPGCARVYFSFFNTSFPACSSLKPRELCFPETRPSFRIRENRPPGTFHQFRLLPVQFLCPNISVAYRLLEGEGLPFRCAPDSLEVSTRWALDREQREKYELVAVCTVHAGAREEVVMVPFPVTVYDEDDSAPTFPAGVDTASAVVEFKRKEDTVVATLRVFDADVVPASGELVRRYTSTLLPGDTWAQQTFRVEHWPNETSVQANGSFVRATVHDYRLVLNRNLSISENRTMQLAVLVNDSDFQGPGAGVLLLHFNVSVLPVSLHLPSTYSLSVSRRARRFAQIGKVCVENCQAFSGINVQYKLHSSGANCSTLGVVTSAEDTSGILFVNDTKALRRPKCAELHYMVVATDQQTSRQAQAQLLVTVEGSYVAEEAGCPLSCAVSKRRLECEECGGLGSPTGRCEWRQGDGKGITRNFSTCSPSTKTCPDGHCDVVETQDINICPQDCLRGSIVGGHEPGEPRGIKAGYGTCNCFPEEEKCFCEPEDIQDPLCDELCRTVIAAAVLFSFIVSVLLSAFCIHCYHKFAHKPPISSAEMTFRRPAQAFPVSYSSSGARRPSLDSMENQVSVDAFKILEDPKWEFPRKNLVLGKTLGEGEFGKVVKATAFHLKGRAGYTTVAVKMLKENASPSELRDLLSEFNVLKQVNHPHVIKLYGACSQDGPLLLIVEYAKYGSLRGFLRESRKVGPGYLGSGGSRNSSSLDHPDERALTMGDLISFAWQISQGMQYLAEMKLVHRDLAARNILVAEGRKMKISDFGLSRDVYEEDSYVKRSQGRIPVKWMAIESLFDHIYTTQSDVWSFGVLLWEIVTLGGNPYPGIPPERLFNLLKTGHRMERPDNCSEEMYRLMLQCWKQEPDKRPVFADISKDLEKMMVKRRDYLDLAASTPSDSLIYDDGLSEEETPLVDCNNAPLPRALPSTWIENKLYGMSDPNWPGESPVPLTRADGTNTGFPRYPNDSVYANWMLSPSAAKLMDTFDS

Question: What does the source list for `c1cc(CC2CCOCC2)n2nc(Nc3ccc4c(NC5CCOCC5)n[nH]c4c3)nc2c1` [CC-509, [3-(2H-3,4,5,6-tetrahydropyran-4-ylamino)(1H-indazol-6-yl)][5-(2H-3,4,5,6-tetrahydropyran-4-ylmethyl)(2H-1,2,4-triazolo[1,5-a]pyridin-2-yl)]amine]?
Answer: IC50 (RetA): 750 ± 190 nM; IC50 (Syk [1]): 26 ± 6 nM; Ki (Syk [2]): 18 nM; mode of inhibition with respect to the Syk ATP binding site (Syk [2]; based on enzyme kinetics): mixed competitive inhibitor
